Measurements as given in ChEMBL document CHEMBL3046561, “Feeding deterrents from Dictamnus dasycarpus Turcz against two stored-product insects” (J Agric Food Chem, 2002).

Experiments:
Sitophilus zeamais [1] = assay: Antifeedant activity against adult of Sitophilus zeamais assessed as mortality at 100 ppm after 3 days relative to control; type: functional; details: 72 h
Tribolium castaneum [2] = assay: Antifeedant activity against larvae of Tribolium castaneum (red flour beetle) assessed as mortality at 30 ppm after 3 days relative to control; type: functional; details: 72 h
Tribolium castaneum [3] = assay: Antifeedant activity against larvae of Tribolium castaneum (red flour beetle) assessed as mortality at 10 ppm after 3 days relative to control; type: functional; details: 72 h
Tribolium castaneum [4] = assay: Antifeedant activity against adult of Tribolium castaneum (red flour beetle) assessed as mortality at 300 ppm after 3 days relative to control; type: functional; details: 72 h
Tribolium castaneum [5] = assay: Antifeedant activity against adult of Tribolium castaneum (red flour beetle) assessed as efficiency of conversion of ingested food at 300 ppm after 3 days relative to control; type: functional, Instar larval stage
Tribolium castaneum [6] = assay: Antifeedant activity against larvae of Tribolium castaneum (red flour beetle) assessed as feeding deterrence index at 300 ppm after 3 days relative to control; type: functional
Tribolium castaneum [7] = assay: Antifeedant activity against larvae of Tribolium castaneum (red flour beetle) assessed as feeding deterrence index at 100 ppm after 3 days relative to control; type: functional
Tribolium castaneum [8] = assay: Antifeedant activity against larvae of Tribolium castaneum (red flour beetle) assessed as feeding deterrence index at 30 ppm after 3 days relative to control; type: functional
Tribolium castaneum [9] = assay: Antifeedant activity against larvae of Tribolium castaneum (red flour beetle) assessed as feeding deterrence index at 10 ppm after 3 days relative to control; type: functional
Tribolium castaneum [10] = assay: Antifeedant activity against larvae of Tribolium castaneum (red flour beetle) assessed as feeding deterrence index at 3 ppm after 3 days relative to control; type: functional
Tribolium castaneum [11] = assay: Antifeedant activity against adult of Tribolium castaneum (red flour beetle) assessed as feeding deterrence index at 300 ppm after 3 days relative to control; type: functional
Tribolium castaneum [12] = assay: Antifeedant activity against adult of Tribolium castaneum (red flour beetle) assessed as feeding deterrence index at 30 ppm after 3 days relative to control; type: functional
Tribolium castaneum [13] = assay: Antifeedant activity against adult of Tribolium castaneum (red flour beetle) assessed as feeding deterrence index at 100 ppm after 3 days relative to control; type: functional
Sitophilus zeamais [14] = assay: Antifeedant activity against adult of Sitophilus zeamais assessed as feeding deterrence index at 300 ppm after 3 days relative to control; type: functional
Tribolium castaneum [15] = assay: Antifeedant activity against adult of Tribolium castaneum (red flour beetle) assessed as feeding deterrence index at 3 ppm after 3 days relative to control; type: functional
Sitophilus zeamais [16] = assay: Antifeedant activity against adult of Sitophilus zeamais assessed as feeding deterrence index at 100 ppm after 3 days relative to control; type: functional
Sitophilus zeamais [17] = assay: Antifeedant activity against adult of Sitophilus zeamais assessed as feeding deterrence index at 30 ppm after 3 days relative to control; type: functional
Sitophilus zeamais [18] = assay: Antifeedant activity against adult of Sitophilus zeamais assessed as feeding deterrence index at 3 ppm after 3 days relative to control; type: functional
Tribolium castaneum [19] = assay: Antifeedant activity against larvae of Tribolium castaneum (red flour beetle) assessed as mortality at 100 ppm after 3 days relative to control; type: functional; details: 72 h
Tribolium castaneum [20] = assay: Antifeedant activity against adult of Tribolium castaneum (red flour beetle) assessed as relative growth rate at 300 ppm after 3 days relative to control; type: functional
Sitophilus zeamais [21] = assay: Antifeedant activity against adult of Sitophilus zeamais assessed as relative growth rate at 3 ppm after 3 days relative to control; type: functional
Sitophilus zeamais [22] = assay: Antifeedant activity against adult of Sitophilus zeamais assessed as relative growth rate at 10 ppm after 3 days relative to control; type: functional
Sitophilus zeamais [23] = assay: Antifeedant activity against adult of Sitophilus zeamais assessed as relative growth rate at 30 ppm after 3 days relative to control; type: functional
Sitophilus zeamais [24] = assay: Antifeedant activity against adult of Sitophilus zeamais assessed as relative growth rate at 100 ppm after 3 days relative to control; type: functional
Sitophilus zeamais [25] = assay: Antifeedant activity against adult of Sitophilus zeamais assessed as relative growth rate at 300 ppm after 3 days relative to control; type: functional
Tribolium castaneum [26] = assay: Antifeedant activity against adult of Tribolium castaneum (red flour beetle) assessed as relative growth rate at 10 ppm after 3 days relative to control; type: functional
Tribolium castaneum [27] = assay: Antifeedant activity against adult of Tribolium castaneum (red flour beetle) assessed as efficiency of conversion of ingested food at 100 ppm after 3 days relative to control; type: functional
Tribolium castaneum [28] = assay: Antifeedant activity against adult of Tribolium castaneum (red flour beetle) assessed as efficiency of conversion of ingested food at 30 ppm after 3 days relative to control; type: functional
Tribolium castaneum [29] = assay: Antifeedant activity against adult of Tribolium castaneum (red flour beetle) assessed as efficiency of conversion of ingested food at 3 ppm after 3 days relative to control; type: functional
Sitophilus zeamais [30] = assay: Antifeedant activity against adult of Sitophilus zeamais assessed as efficiency of conversion of ingested food at 100 ppm after 3 days relative to control; type: functional
Sitophilus zeamais [31] = assay: Antifeedant activity against adult of Sitophilus zeamais assessed as efficiency of conversion of ingested food at 30 ppm after 3 days relative to control; type: functional
Tribolium castaneum [32] = assay: Antifeedant activity against larvae of Tribolium castaneum (red flour beetle) assessed as relative consumption rate at 100 ppm after 3 days relative to control; type: functional
Tribolium castaneum [33] = assay: Antifeedant activity against larvae of Tribolium castaneum (red flour beetle) assessed as relative consumption rate at 300 ppm after 3 days relative to control; type: functional
Tribolium castaneum [34] = assay: Antifeedant activity against larvae of Tribolium castaneum (red flour beetle) assessed as relative consumption rate at 30 ppm after 3 days relative to control; type: functional
Tribolium castaneum [35] = assay: Antifeedant activity against larvae of Tribolium castaneum (red flour beetle) assessed as relative consumption rate at 3 ppm after 3 days relative to control; type: functional
Tribolium castaneum [36] = assay: Antifeedant activity against larvae of Tribolium castaneum (red flour beetle) assessed as relative consumption rate at 10 ppm after 3 days relative to control; type: functional
Tribolium castaneum [37] = assay: Antifeedant activity against adult of Tribolium castaneum (red flour beetle) assessed as relative consumption rate at 300 ppm after 3 days relative to control; type: functional
Tribolium castaneum [38] = assay: Antifeedant activity against adult of Tribolium castaneum (red flour beetle) assessed as relative consumption rate at 30 ppm after 3 days relative to control; type: functional
Tribolium castaneum [39] = assay: Antifeedant activity against adult of Tribolium castaneum (red flour beetle) assessed as relative consumption rate at 3 ppm after 3 days relative to control; type: functional
Sitophilus zeamais [40] = assay: Antifeedant activity against adult of Sitophilus zeamais assessed as relative consumption rate at 300 ppm after 3 days relative to control; type: functional
Sitophilus zeamais [41] = assay: Antifeedant activity against adult of Sitophilus zeamais assessed as relative consumption rate at 30 ppm after 3 days relative to control; type: functional
Sitophilus zeamais [42] = assay: Antifeedant activity against adult of Sitophilus zeamais assessed as relative consumption rate at 100 ppm after 3 days relative to control; type: functional
Sitophilus zeamais [43] = assay: Antifeedant activity against adult of Sitophilus zeamais assessed as relative consumption rate at 10 ppm after 3 days relative to control; type: functional
Tribolium castaneum [44] = assay: Antifeedant activity against larvae of Tribolium castaneum (red flour beetle) assessed as relative growth rate at 300 ppm after 3 days relative to control; type: functional
Tribolium castaneum [45] = assay: Antifeedant activity against larvae of Tribolium castaneum (red flour beetle) assessed as relative growth rate at 30 ppm after 3 days relative to control; type: functional
Tribolium castaneum [46] = assay: Antifeedant activity against larvae of Tribolium castaneum (red flour beetle) assessed as relative growth rate at 3 ppm after 3 days relative to control; type: functional
Tribolium castaneum [47] = assay: Antifeedant activity against larvae of Tribolium castaneum (red flour beetle) assessed as relative growth rate at 10 ppm after 3 days relative to control; type: functional
Tribolium castaneum [48] = assay: Antifeedant activity against adult of Tribolium castaneum (red flour beetle) assessed as relative growth rate at 100 ppm after 3 days relative to control; type: functional

COc1c2ccccc2nc2occc12 [DICTAMNINE]
mortality at 100 ppm (Sitophilus zeamais [1]): 0%
mortality at 30 ppm (Tribolium castaneum [2]): 0%
mortality at 10 ppm (Tribolium castaneum [3]): 0%
mortality at 300 ppm (Tribolium castaneum [4]): 2%
Activity (Tribolium castaneum [5]): 13.81%
FDI (Tribolium castaneum [6]): 82.21%
FDI (Tribolium castaneum [7]): 64.42%
FDI (Tribolium castaneum [8]): 38.52%
FDI (Tribolium castaneum [9]): 21.77%
FDI (Tribolium castaneum [10]): 4.59%
FDI (Tribolium castaneum [11]): 81.24%
FDI (Tribolium castaneum [12]): 32.38%
FDI (Tribolium castaneum [13]): 59.58%
FDI (Sitophilus zeamais [14]): 68.04%
FDI (Tribolium castaneum [15]): 7.31%
FDI (Sitophilus zeamais [16]): 51.77%
FDI (Sitophilus zeamais [17]): 30.99%
FDI (Sitophilus zeamais [18]): 9.69%
mortality at 100 ppm (Tribolium castaneum [19]): 0%
Activity (Tribolium castaneum [20]): 6.45 µg/mg/day
Activity (Sitophilus zeamais [21]): 15.71 µg/mg/day
Activity (Sitophilus zeamais [22]): 14.32 µg/mg/day
Activity (Sitophilus zeamais [23]): 12.08 µg/mg/day
Activity (Sitophilus zeamais [24]): 9.49 µg/mg/day
Activity (Sitophilus zeamais [25]): 3.21 µg/mg/day
Activity (Tribolium castaneum [26]): 27.3 µg/mg/day
Activity (Tribolium castaneum [27]): 17.88%
Activity (Tribolium castaneum [28]): 18.35%
Activity (Tribolium castaneum [29]): 21.25%
Activity (Sitophilus zeamais [30]): 9.73%
Activity (Sitophilus zeamais [31]): 9.78%
Activity (Tribolium castaneum [32]): 123.74 µg/mg/day
Activity (Tribolium castaneum [33]): 84.83 µg/mg/day
Activity (Tribolium castaneum [34]): 168.23 µg/mg/day
Activity (Tribolium castaneum [35]): 254.2 µg/mg/day
Activity (Tribolium castaneum [36]): 213.17 µg/mg/day
Activity (Tribolium castaneum [37]): 22.21 µg/mg/day
Activity (Tribolium castaneum [38]): 101.27 µg/mg/day
Activity (Tribolium castaneum [39]): 132.89 µg/mg/day
Activity (Sitophilus zeamais [40]): 35.13 µg/mg/day
Activity (Sitophilus zeamais [41]): 86.75 µg/mg/day
Activity (Sitophilus zeamais [42]): 52.65 µg/mg/day
Activity (Sitophilus zeamais [43]): 110.95 µg/mg/day
Activity (Tribolium castaneum [44]): 7.08 µg/mg/day
Activity (Tribolium castaneum [45]): 31.75 µg/mg/day
Activity (Tribolium castaneum [46]): 52.88 µg/mg/day
Activity (Tribolium castaneum [47]): 47.56 µg/mg/day
Activity (Tribolium castaneum [48]): 13.49 µg/mg/day

CC1=C2C(=O)O[C@@H](c3ccoc3)[C@]2(C)CCC1 [FRAXINELLONE]
mortality at 100 ppm (Sitophilus zeamais [1]): 0%
mortality at 30 ppm (Tribolium castaneum [2]): 0%
mortality at 10 ppm (Tribolium castaneum [3]): 0%
mortality at 300 ppm (Tribolium castaneum [4]): 4%
Activity (Tribolium castaneum [5]): 10.07%
FDI (Tribolium castaneum [6]): 95.68%
FDI (Tribolium castaneum [7]): 72.76%
FDI (Tribolium castaneum [8]): 50.33%
FDI (Tribolium castaneum [9]): 24.45%
FDI (Tribolium castaneum [10]): 11.65%
FDI (Tribolium castaneum [11]): 95.05%
FDI (Tribolium castaneum [12]): 40.07%
FDI (Tribolium castaneum [13]): 69.28%
FDI (Sitophilus zeamais [14]): 77.77%
FDI (Tribolium castaneum [15]): 8.46%
FDI (Sitophilus zeamais [16]): 54.09%
FDI (Sitophilus zeamais [17]): 30.76%
FDI (Sitophilus zeamais [18]): 2.92%
mortality at 100 ppm (Tribolium castaneum [19]): 0%
Activity (Tribolium castaneum [20]): 1.48 µg/mg/day
Activity (Sitophilus zeamais [21]): 15.22 µg/mg/day
Activity (Sitophilus zeamais [22]): 13.29 µg/mg/day
Activity (Sitophilus zeamais [23]): 10.06 µg/mg/day
Activity (Sitophilus zeamais [24]): 7.05 µg/mg/day
Activity (Sitophilus zeamais [25]): 4.26 µg/mg/day
Activity (Tribolium castaneum [26]): 23.64 µg/mg/day
Activity (Tribolium castaneum [27]): 17.57%
Activity (Tribolium castaneum [28]): 19.1%
Activity (Tribolium castaneum [29]): 21.68%
Activity (Sitophilus zeamais [30]): 9.66%
Activity (Sitophilus zeamais [31]): 9.57%
Activity (Tribolium castaneum [32]): 127.99 µg/mg/day
Activity (Tribolium castaneum [33]): 30.12 µg/mg/day
Activity (Tribolium castaneum [34]): 163.61 µg/mg/day
Activity (Tribolium castaneum [35]): 233.06 µg/mg/day
Activity (Tribolium castaneum [36]): 198.13 µg/mg/day
Activity (Tribolium castaneum [37]): 7.39 µg/mg/day
Activity (Tribolium castaneum [38]): 83.91 µg/mg/day
Activity (Tribolium castaneum [39]): 140.68 µg/mg/day
Activity (Sitophilus zeamais [40]): 35.29 µg/mg/day
Activity (Sitophilus zeamais [41]): 113.45 µg/mg/day
Activity (Sitophilus zeamais [42]): 79.29 µg/mg/day
Activity (Sitophilus zeamais [43]): 120.27 µg/mg/day
Activity (Tribolium castaneum [44]): -8.44 µg/mg/day
Activity (Tribolium castaneum [45]): 23.22 µg/mg/day
Activity (Tribolium castaneum [46]): 52.62 µg/mg/day
Activity (Tribolium castaneum [47]): 41.3 µg/mg/day
Activity (Tribolium castaneum [48]): 9.41 µg/mg/day
